Laboratory results from ChEMBL document CHEMBL1671662, “In vitro activities of telavancin and six comparator agents against anaerobic bacterial isolates” (2009).
In brackets after ≈: the same amount, converted by molar mass.

Assays:
[1] = system: Odoribacter splanchnicus; test: Antibacterial activity against Bacteroides splanchnicus by CLSI M11-A6 agar dilution method; type: functional
[2] = system: Clostridium scindens; test: Antibacterial activity against Clostridium scindens by CLSI M11-A6 agar dilution method; type: functional
[3] = system: Bifidobacterium longum; test: Antibacterial activity against Bifidobacterium longum by CLSI M11-A6 agar dilution method; type: functional
[4] = system: Prevotella denticola; test: Antibacterial activity against Prevotella P denticola by CLSI M11-A6 agar dilution method; type: functional
[5] = system: Thomasclavelia ramosa; test: Antibacterial activity against Clostridium ramosum by CLSI M11-A6 agar dilution method; type: functional
[6] = system: Clostridium; test: Antibacterial activity against Clostridium hypermegas by CLSI M11-A6 agar dilution method; type: functional
[7] = system: Catenibacterium mitsuokai; test: Antibacterial activity against Catenibacterium mitsuokai by CLSI M11-A6 agar dilution method; type: functional
[8] = system: Clostridium tertium; test: Antibacterial activity against Clostridium tertium by CLSI M11-A6 agar dilution method; type: functional
[9] = system: Ruminococcus flavefaciens; test: Antibacterial activity against Ruminococcus flavefaciens by CLSI M11-A6 agar dilution method; type: functional
[10] = system: Prevotella intermedia; test: Antibacterial activity against Prevotella P intermedia by CLSI M11-A6 agar dilution method; type: functional
[11] = system: Phocaeicola vulgatus; test: Antibacterial activity against Bacteroides vulgatus by CLSI M11-A6 agar dilution method; type: functional
[12] = system: Anaerococcus tetradius; test: Antibacterial activity against Anaerococcus tetradius by CLSI M11-A6 agar dilution method; type: functional
[13] = system: Prevotella buccae; test: Antibacterial activity against Prevotella buccae by CLSI M11-A6 agar dilution method; type: functional; conditions: Segatella buccae
[14] = system: Actinomyces naeslundii; test: Antibacterial activity against Actinomyces naeslundii by CLSI M11-A6 agar dilution method; type: functional
[15] = system: [Clostridium] innocuum; test: Antibacterial activity against Clostridium innocuum by CLSI M11-A6 agar dilution method; type: functional
[16] = system: Ruminococcus sp.; test: Antibacterial activity against Ruminococcus sp. by CLSI M11-A6 agar dilution method; type: functional
[17] = system: Paraclostridium bifermentans; test: Antibacterial activity against Clostridium bifermentans by CLSI M11-A6 agar dilution method; type: functional
[18] = system: Flavonifractor plautii; test: Antibacterial activity against Clostridium orbiscindens by CLSI M11-A6 agar dilution method; type: functional
[19] = system: Clostridium disporicum; test: Antibacterial activity against Clostridium disporicum by CLSI M11-A6 agar dilution method; type: functional
[20] = system: Anaerococcus prevotii; test: Antibacterial activity against Anaerococcus prevotii by CLSI M11-A6 agar dilution method; type: functional
[21] = system: Clostridium paraputrificum; test: Antibacterial activity against Clostridium paraputrificum by CLSI M11-A6 agar dilution method; type: functional
[22] = system: Fusobacterium varium; test: Antibacterial activity against Fusobacterium varium by CLSI M11-A6 agar dilution method; type: functional
[23] = system: Clostridium spiroforme; test: Antibacterial activity against Clostridium spiroforme by CLSI M11-A6 agar dilution method; type: functional; conditions: Thomasclavelia spiroformis
[24] = system: Clostridium glycolicum; test: Antibacterial activity against Clostridium glycolicum by CLSI M11-A6 agar dilution method; type: functional; conditions: Terrisporobacter glycolicus
[25] = Antibacterial activity against Bifidobacterium infantis by CLSI M11-A6 agar dilution method; type: functional, Bifidobacterium longum subsp. infantis; conditions: Bifidobacterium longum
[26] = system: Holdemania filiformis; test: Antibacterial activity against Holdemania filiformis by CLSI M11-A6 agar dilution method; type: functional
[27] = system: Prevotella disiens; test: Antibacterial activity against Prevotella P disiens by CLSI M11-A6 agar dilution method; type: functional
[28] = system: Bacteroides fragilis; test: Antibacterial activity against Bacteroides fragilis by CLSI M11-A6 agar dilution method; type: functional
[29] = system: Bifidobacterium breve; test: Antibacterial activity against Bifidobacterium breve by CLSI M11-A6 agar dilution method; type: functional
[30] = system: Bifidobacterium adolescentis; test: Antibacterial activity against Bifidobacterium adolescentis by CLSI M11-A6 agar dilution method; type: functional
[31] = system: Clostridium butyricum; test: Antibacterial activity against Clostridium butyricum by CLSI M11-A6 agar dilution method; type: functional
[32] = system: Streptococcus constellatus; test: Antibacterial activity against Streptococcus constellatus by CLSI M11-A6 agar dilution method; type: functional
[33] = system: Collinsella aerofaciens; test: Antibacterial activity against Colinsella aerofaciens by CLSI M11-A6 agar dilution method; type: functional
[34] = system: Fusobacterium mortiferum; test: Antibacterial activity against Fusobacterium mortiferum by CLSI M11-A6 agar dilution method; type: functional
[35] = system: Streptococcus intermedius; test: Antibacterial activity against Streptococcus intermedius by CLSI M11-A6 agar dilution method; type: functional
[36] = system: Prevotella melaninogenica; test: Antibacterial activity against Prevotella melaninogenica by CLSI M11-A6 agar dilution method; type: functional
[37] = system: Prevotella intermedia; test: Antibacterial activity against Prevotella intermedia by CLSI M11-A6 agar dilution method; type: functional
[38] = system: Clostridium bartlettii; test: Antibacterial activity against Clostridium bartlettii by CLSI M11-A6 agar dilution method; type: functional; conditions: Intestinibacter bartlettii
[39] = system: Clostridium perfringens; test: Antibacterial activity against Clostridium perfringens by CLSI M11-A6 agar dilution method; type: functional

**Q.** Which results are given for CC(=O)NC[C@H]1CN(c2ccc(N3CCOCC3)c(F)c2)C(=O)O1 [LINEZOLID]?
**A.** MIC [1]: 2 µg/mL (≈ 5.93 µM); MIC50 [1]: 2 µg/mL (≈ 5.93 µM); MIC90 [1]: 4 µg/mL (≈ 11.9 µM); MIC50 [2]: 2 µg/mL (≈ 5.93 µM); MIC90 [2]: 4 µg/mL (≈ 11.9 µM); MIC50 [3]: 1 µg/mL (≈ 2.96 µM); MIC90 [3]: 8 µg/mL (≈ 23.7 µM); MIC50 [4]: 2 µg/mL (≈ 5.93 µM); MIC90 [4]: 2 µg/mL (≈ 5.93 µM); MIC50 [5]: 8 µg/mL (≈ 23.7 µM); MIC90 [5]: 8 µg/mL (≈ 23.7 µM); MIC50 [6]: 2 µg/mL (≈ 5.93 µM); MIC90 [6]: 4 µg/mL (≈ 11.9 µM); MIC50 [7]: 1 µg/mL (≈ 2.96 µM); MIC90 [7]: 8 µg/mL (≈ 23.7 µM); MIC50 [8]: 2 µg/mL (≈ 5.93 µM); MIC90 [8]: 4 µg/mL (≈ 11.9 µM); MIC50 [9]: 2 µg/mL (≈ 5.93 µM); MIC90 [9]: 4 µg/mL (≈ 11.9 µM); MIC50 [10]: 2 µg/mL (≈ 5.93 µM); MIC90 [10]: 2 µg/mL (≈ 5.93 µM); MIC50 [11]: 2 µg/mL (≈ 5.93 µM); MIC90 [11]: 4 µg/mL (≈ 11.9 µM); MIC50 [12]: 1 µg/mL (≈ 2.96 µM); MIC90 [12]: 2 µg/mL (≈ 5.93 µM); MIC50 [13]: 2 µg/mL (≈ 5.93 µM); MIC90 [13]: 2 µg/mL (≈ 5.93 µM); MIC50 [14]: 1 µg/mL (≈ 2.96 µM); MIC90 [14]: 8 µg/mL (≈ 23.7 µM); MIC [15]: 2 µg/mL (≈ 5.93 µM); MIC50 [15]: 2 µg/mL (≈ 5.93 µM); MIC90 [15]: 4 µg/mL (≈ 11.9 µM); MIC50 [16]: 1 µg/mL (≈ 2.96 µM); MIC90 [16]: 2 µg/mL (≈ 5.93 µM); MIC50 [17]: 2 µg/mL (≈ 5.93 µM); MIC90 [17]: 4 µg/mL (≈ 11.9 µM); MIC50 [18]: 2 µg/mL (≈ 5.93 µM); MIC90 [18]: 4 µg/mL (≈ 11.9 µM); MIC50 [19]: 2 µg/mL (≈ 5.93 µM); MIC90 [19]: 4 µg/mL (≈ 11.9 µM); MIC50 [20]: 1 µg/mL (≈ 2.96 µM); MIC90 [20]: 2 µg/mL (≈ 5.93 µM); MIC50 [21]: 2 µg/mL (≈ 5.93 µM); MIC90 [21]: 4 µg/mL (≈ 11.9 µM); MIC50 [22]: 1 µg/mL (≈ 2.96 µM); MIC90 [22]: 1 µg/mL (≈ 2.96 µM); MIC50 [23]: 2 µg/mL (≈ 5.93 µM); MIC90 [23]: 4 µg/mL (≈ 11.9 µM); MIC50 [24]: 2 µg/mL (≈ 5.93 µM); MIC90 [24]: 4 µg/mL (≈ 11.9 µM); MIC90 [25]: 8 µg/mL (≈ 23.7 µM); MIC50 [26]: 1 µg/mL (≈ 2.96 µM); MIC90 [26]: 8 µg/mL (≈ 23.7 µM); MIC50 [27]: 2 µg/mL (≈ 5.93 µM); MIC90 [27]: 2 µg/mL (≈ 5.93 µM); MIC [28]: 4 µg/mL (≈ 11.9 µM); MIC50 [28]: 4 µg/mL (≈ 11.9 µM); MIC90 [28]: 8 µg/mL (≈ 23.7 µM); MIC50 [29]: 1 µg/mL (≈ 2.96 µM); MIC90 [29]: 8 µg/mL (≈ 23.7 µM); MIC50 [30]: 1 µg/mL (≈ 2.96 µM); MIC90 [30]: 8 µg/mL (≈ 23.7 µM); MIC50 [31]: 2 µg/mL (≈ 5.93 µM); MIC90 [31]: 4 µg/mL (≈ 11.9 µM); MIC50 [32]: 2 µg/mL (≈ 5.93 µM); MIC90 [32]: 4 µg/mL (≈ 11.9 µM); MIC50 [33]: 1 µg/mL (≈ 2.96 µM); MIC90 [33]: 8 µg/mL (≈ 23.7 µM); MIC50 [34]: 1 µg/mL (≈ 2.96 µM); MIC90 [34]: 1 µg/mL (≈ 2.96 µM); MIC50 [35]: 2 µg/mL (≈ 5.93 µM); MIC90 [35]: 4 µg/mL (≈ 11.9 µM); MIC50 [36]: 2 µg/mL (≈ 5.93 µM); MIC90 [36]: 2 µg/mL (≈ 5.93 µM); MIC50 [37]: 2 µg/mL (≈ 5.93 µM); MIC90 [37]: 2 µg/mL (≈ 5.93 µM); MIC50 [38]: 2 µg/mL (≈ 5.93 µM); MIC90 [38]: 4 µg/mL (≈ 11.9 µM); MIC50 [39]: 2 µg/mL (≈ 5.93 µM); MIC90 [39]: 2 µg/mL (≈ 5.93 µM)
